US11377442B2, “Small molecule agonists and antagonists of NR2F6 activity” (ZANDER THERAPEUTICS, INC., priority 2016, dated 2022)

Molecular target: T1, NR2F6 (Homo sapiens, UniProt P10588)
T1 construct: expressed in transfected cells; also transient transfection
T1 sequence (P10588 1-404): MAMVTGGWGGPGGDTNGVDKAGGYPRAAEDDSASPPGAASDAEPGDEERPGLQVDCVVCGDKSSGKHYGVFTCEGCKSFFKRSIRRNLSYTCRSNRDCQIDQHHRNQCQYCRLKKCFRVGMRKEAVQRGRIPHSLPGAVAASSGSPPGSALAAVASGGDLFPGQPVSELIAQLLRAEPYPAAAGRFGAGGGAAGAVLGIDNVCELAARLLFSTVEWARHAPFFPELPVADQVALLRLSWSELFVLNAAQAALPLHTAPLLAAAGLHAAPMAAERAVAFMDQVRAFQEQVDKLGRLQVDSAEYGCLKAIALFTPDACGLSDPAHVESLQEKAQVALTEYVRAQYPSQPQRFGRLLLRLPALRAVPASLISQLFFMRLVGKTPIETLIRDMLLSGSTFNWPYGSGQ
Experiment: NR2F6 agonist screening, Firefly signal cmpd/DMSO
Format: cell-based
Conditions: for Firefly/Renilla (NR2F6 stable, clone F4): ratio Firefly/Renilla; for Firefly, NR2F6 stable (clone F4)/pGL4: ratio of Firefly in NR2F6 stable clone F4 to pGL4

[1] = C11 analogs follow set (Tables 2-10)

Structure (SMILES) | Firefly, cmpd/DMSO repeat 1 [1] | Firefly, cmpd/DMSO repeat 2 [1] | other results
Cc1ccc(S(=O)(=O)c2cc3cc(Br)ccc3oc2=O)cc1Cl [Compound C189] | 2.8 | 2.2 | –
Cc1cc(C)cc(S(=O)(=O)c2cc3cc(F)ccc3oc2=O)c1 [Compound C190] | 2.1 | 2.5 | –
O=c1oc2ccc(Cl)cc2cc1S(=O)(=O)c1cccc(Cl)c1 [Compound C191] | 8.6 | 12.8 | –
O=c1oc2ccc(Br)cc2cc1S(=O)(=O)c1cccc(Cl)c1 [Compound C192] | 1.8 | 2.4 | –
O=c1oc2ccc(Br)cc2cc1S(=O)(=O)c1cc(F)cc(F)c1 [Compound C193] | 1.8 | 1.9 | –
O=c1oc2ccc(Cl)cc2cc1S(=O)(=O)c1cc(F)cc(F)c1 [Compound C194] | 10.6 | 6.3 | Firefly/Renilla (NR2F6 stable, clone F4) (Table 13): 1.3; Firefly, NR2F6 stable (clone F4)/pGL4 (Table 13): 6.6; Firefly, cmpd/DMSO repeat 1 (Table 13): 10.6; Firefly, cmpd/DMSO repeat 2 (Table 13): 6.3
N#Cc1cccc(S(=O)(=O)c2cc3cc(Cl)ccc3oc2=O)c1 [Compound C195] | 38.7 | 29.4 | Firefly/Renilla (NR2F6 stable, clone F4) (Table 12): 2.1; Firefly, NR2F6 stable (clone F4)/pGL4 (Table 12): 7.7; Firefly, cmpd/DMSO repeat 1 (Table 12): 38.7; Firefly, cmpd/DMSO repeat 2 (Table 12): 29.4
N#Cc1cccc(S(=O)(=O)c2cc3cc(Br)ccc3oc2=O)c1 [Compound C196] | 3.8 | 3.4 | –
Cc1ccc(S(=O)(=O)c2cc3cc(Br)ccc3oc2=O)cc1 [Compound C197] | 17.6 | 14.8 | Firefly/Renilla (NR2F6 stable, clone F4) (Table 13): 1.1; Firefly, NR2F6 stable (clone F4)/pGL4 (Table 13): 6.3; Firefly, cmpd/DMSO repeat 1 (Table 13): 17.6; Firefly, cmpd/DMSO repeat 2 (Table 13): 14.8
O=c1oc2ccc(Br)cc2cc1S(=O)(=O)c1ccc(F)cc1 [Compound C198] | 1.0 | 0.8 | –
COc1ccc(S(=O)(=O)c2cc3cc(Br)ccc3oc2=O)cc1 [Compound C199] | 19.3 | 16.1 | –
CC(C)(C)c1ccc(S(=O)(=O)c2cc3cc(Br)ccc3oc2=O)cc1 [Compound C200] | 11.0 | 8.1 | Firefly/Renilla (NR2F6 stable, clone F4) (Table 13): 1.2; Firefly, NR2F6 stable (clone F4)/pGL4 (Table 13): 5.4; Firefly, cmpd/DMSO repeat 1 (Table 13): 11.0; Firefly, cmpd/DMSO repeat 2 (Table 13): 8.1
O=c1oc2ccc(Cl)cc2cc1S(=O)(=O)c1ccccc1 [Compound C201] | 6.1 | 5.3 | –
Cc1ccc(S(=O)(=O)c2cc3cc(Cl)ccc3oc2=O)cc1 [Compound C202] | 15.7 | 14.1 | Firefly/Renilla (NR2F6 stable, clone F4) (Table 12): 1.7; Firefly, NR2F6 stable (clone F4)/pGL4 (Table 12): 6.1; Firefly, cmpd/DMSO repeat 1 (Table 12): 15.7; Firefly, cmpd/DMSO repeat 2 (Table 12): 14.1
COc1ccc(S(=O)(=O)c2cc3cc(Cl)ccc3oc2=O)cc1 [Compound C203] | 9.5 | 15.5 | –
O=c1oc2ccc(Cl)cc2cc1S(=O)(=O)c1ccc(Br)cc1 [Compound C204] | 5.0 | 5.8 | –
CC(C)(C)c1ccc(S(=O)(=O)c2cc3cc(Cl)ccc3oc2=O)cc1 [Compound C205] | 6.9 | 6.0 | –
COc1ccc2oc(=O)c(S(=O)(=O)c3ccccc3)cc2c1 [Compound C206] | 2.1 | 1.8 | –
COc1ccc(S(=O)(=O)c2cc3cc(OC)ccc3oc2=O)cc1 [Compound C207] | 2.5 | 2.8 | –
COc1ccc2oc(=O)c(S(=O)(=O)c3ccc(Br)cc3)cc2c1 [Compound C208] | 0.8 | 0.9 | –
COc1ccc2oc(=O)c(S(=O)(=O)c3ccc(C(C)(C)C)cc3)cc2c1 [Compound C209] | 3.1 | 4.2 | Firefly/Renilla (NR2F6 stable, clone F4) (Table 13): 3.6; Firefly, NR2F6 stable (clone F4)/pGL4 (Table 13): 3.1; Firefly, cmpd/DMSO repeat 1 (Table 13): 3.1; Firefly, cmpd/DMSO repeat 2 (Table 13): 4.2
O=c1oc2ccc([N+](=O)[O-])cc2cc1S(=O)(=O)c1ccccc1 [Compound C210] | 22.8 | 14.3 | Firefly/Renilla (NR2F6 stable, clone F4) (Table 13): 1.5; Firefly, NR2F6 stable (clone F4)/pGL4 (Table 13): 8.2; Firefly, cmpd/DMSO repeat 1 (Table 13): 22.8; Firefly, cmpd/DMSO repeat 2 (Table 13): 14.3
Cc1ccc(S(=O)(=O)c2cc3cc([N+](=O)[O-])ccc3oc2=O)cc1 [Compound C211] | 5.8 | 17.7 | –
O=c1oc2ccc(F)cc2cc1S(=O)(=O)c1ccccc1 [Compound C212] | 1.7 | 1.9 | –
O=c1oc2ccc(F)cc2cc1S(=O)(=O)c1ccc(F)cc1 [Compound C213] | 14.0 | 13.6 | Firefly/Renilla (NR2F6 stable, clone F4) (Table 13): 1.6; Firefly, NR2F6 stable (clone F4)/pGL4 (Table 13): 9.6; Firefly, cmpd/DMSO repeat 1 (Table 13): 14.0; Firefly, cmpd/DMSO repeat 2 (Table 13): 13.6
COc1ccc(S(=O)(=O)c2cc3cc(F)ccc3oc2=O)cc1 [Compound C214] | 1.9 | 1.9 | –
O=c1oc2ccc(F)cc2cc1S(=O)(=O)c1ccc(Br)cc1 [Compound C215] | 11.6 | 13.8 | –
CC(C)(C)c1ccc(S(=O)(=O)c2cc3cc(F)ccc3oc2=O)cc1 [Compound C216] | 1.3 | 1.0 | –
Cc1cc(S(=O)(=O)c2cc3cc(F)ccc3oc2=O)ccc1F [Compound C217] | 1.8 | 1.4 | –
